Results from patent publication US12397004B2, “Nasal delivery of low-dose aspirin for the treatment of neurodegenerative and lysosomal storage diseases” (Rush University Medical Center, priority 2018, dated 2025).

How the values were obtained:
[1] = system: adoptively-transferred EAE; assay: Adoptive-transfer EAE in female SJL/J mice: clinical symptoms, grip test, rotorod after aspirin nebulization; type: in vivo; conditions: 0.2 and 0.4 mg/kg body wt/d
Method: FIG. 2A-2C. Nebulization of low-dose aspirin reduced clinical symptoms of experimental allergic encephalomyetis (EAE) in female SJL/J mice. 2A) EAE was induced in 4-5 week old female SLJ/mice by adoptive transfer of myelin basic protein (MBP) primed T cells and from 9 days post-transfer (dpt), mice were treated with different doses of aspirin once daily for nebulization. Mice (n=6 per group in two independent experiments) were scored daily. On 16 dpt (acute phase), mice were examined for grip test (2B) and rotorod (2C). Results are presented as mean±SEM of six (6) mice per group. ^ap<0.001 vs control; ^bp<0.001 vs EAE by two-samples t-tests. Oral tablets of baby aspirin with a standard dosage of 81 mg were solubilized in hot double distilled water and cooled to room temperature. This liquid formulation was made fresh every week. In mice, an aspirin dose of 1 mg/kg body wt/d aspirin is equivalent to “Baby Aspirin” (81 mg tablet per adult). A Buxco Inhalation Tower All-In-One Controller by DSI™ was used for air supply for nebulization (FIG. 1A). A whole body chamber was fitted with an Aeroneb® Ultrasonic Nebulizer (FIG. 1B) supplied with air from a Buxco bias flow pump. Mice were allowed to nebulize aspirin at doses of […] mg/kg body wt/d (solubilized in a volume of 100 μl double-distilled water/mouse) for 3 min. Therefore, control group of mice also received 100 μl water by nebulization. Experimental allergic encephalomyelitis (EAE) is an animal model of MS, the most common human demyelinating disease. RR-EAE was induced in female SJL/J mice by adoptive transfer of myelin […] (MBP) primed T cells (FIG. 2A). As expected, induction of EAE reduced grip test (FIG. 2B) and rotorod (FIG. 2C) performances of mice. Mice were then nebulized with aspirin (0.2 and 0.4 mg/kg body wt/d in a volume of 100 μl/mouse) from 9 days post-transfer (dpt) of MBP-primed T cells. The control EAE group were treated with only water via nebulization. A dose of 0.2 mg/kg body wt/d aspirin equates to approximately 16 mg per adult. Clinical symptoms were monitored every day until 38 dpt. […]

CD4+Foxp3+ Tregs = assay: FACS of lymph node cells of EAE mice for Foxp3 and CD4 (Tregs); type: in vivo, female SJL/J mice; conditions: 0.2 and 0.4 mg/kg body wt/d, nebulization from 9 dpt, 16 dpt
Method: FIG. 3A-3B. Nebulization of low-dose aspirin improves regulatory T cells (Tregs) in vivo in mice with adoptive transfer EAE. Lymph node cells of control, EAE (16 dpt) and low doses of aspirin-treated EAE mice (16 dpt receiving 0.2 and 0.4 mg/kg body wt/d aspirin in 100 μl water from 9 dpt via nebulization) were analyzed by fluorescence activated cell sorting (FACS) for Foxp3 and CD4 (3A). The mean fluorescence intensity (MFI) of Foxp3 in CD4+ population was calculated by using CellQuest software (3B). Data were mean±SEM of four mice per group. ^ap<0.001 vs control; ^bp<0.001 vs EAE by two-samples t-tests. Tregs are most important immunomodulatory subtype of T lymphocytes (Sakaguchi, 2005; Sakaguchi and Powrie, 2007) that are known to suppress EAE and MS. Nebulization of aspirin was further investigated to determine whether nebulization was capable of enriching Tregs in vivo in EAE mice. EAE mice receiving aspirin nebulization from 9 dpt were sacrificed on 16 dpt, followed by analysis of Tregs in lymph node cells (LNC). Foxp3 protein is currently considered as the most important marker of Tregs and by dual fluorescence-activated cell sorting (FACS) staining, we found decrease in CD4^+Foxp3^+ Tregs in LNC of EAE mice (FIG. 3A-B). However, nebulization of EAE mice with aspirin at both 0.2 and 0.4 mg/kg body wt/d doses protected CD4+Foxp3+ Tregs (FIG. 3A-B).

CD4+IL-17+ T cells = assay: FACS of lymph node cells of EAE mice for IL-17 and CD4 (Th17 response); type: in vivo, female SJL/J mice; conditions: 0.2 and 0.4 mg/kg body wt/d, nebulization from 9 dpt, 16 dpt
Method: FIG. 4A-4B. Nebulization of low-dose aspirin suppresses the Th17 response in vivo in mice with adoptive transfer EAE. Lymph node cells of control, EAE (16 dpt) and low doses of aspirin-treated EAE mice (16 dpt receiving 0.2 and 0.4 mg/kg body wt/d aspiring in 100 μl water from 9 dpt via nebulization) were analyzed by FACS for IL-17 and CD4 (4A). The MFI of IL-17 in CD4+ population was calculated by using CellQuest software (4B). Data were mean±SEM of four mice per group. ^ap<0.001 vs control; ^bp<0.001 vs EAE by two-samples t-tests. T helper cell 17 (Th17) cells are considered to play a more important role than Th1 cells in the disease process of EAE and MS (El-behi et al., 2010). Since aspirin nebulization enriched Tregs, aspirin nebulization was tested to determine if aspirin nebulization was capable of suppressing Th17 response in vivo in EAE mice. Th17 cells are characterized by expression of IL-17 (Shi et al., 2008). […] However, nebulization of EAE mice with aspirin led to the suppression of the CD4+IL-17+ T cell population in LNC (FIG. 4A). This is also corroborated by mean fluorescence intensity (MFI) analysis of IL-17 within the CD4+ population (FIG. […]).

FAD5× mouse model of AD [2] = assay: Barnes maze, hippocampus-dependent spatial behavior in FAD5× mice; type: in vivo; conditions: 0.2 and 0.4 mg/kg body wt/d, nebulization, 30 days
Method: FIG. 5A-5E. Nebulization of low-dose aspirin protects memory in the FAD5× mouse model of AD. Six to seven-month old FAD5× mice were treated with low doses (0.2 and 0.4 mg/kg body wt/d) of aspirin via nebulization. After 30 days of treatment, hippocampus-dependent spatial behavior was monitored by Barnes maze. 5A) Representative heat maps summarizing the overall activity of mice on the apparatus recorded with a Noldus camera and visualized by Ethovision XT software. 5B) Latency and 5C) number of errors made by all groups of mice. Context-dependent hippocampal behavior was analyzed by T-maze. 5D) Number of positive turns and 5E) number of negative turns of all groups of mice on an appetitive T-maze conditioning task were manually recorded. Results are presented as mean±SEM of 5 mice per group. ^ap<0.001 vs non-Tg; ^bp<0.001 vs FAD5×; ^cp<0.01 vs non-Tg; ^dp<0.05 vs FAD5×. A Buxco Inhalation Tower All-In-One Controller by DSI™ was used for air supply for nebulization (FIG. 1A). A whole body chamber was fitted with an Aeroneb® Ultrasonic Nebulizer (FIG. 1B) supplied with air from a Buxco bias flow pump. […] Hippocampus-dependent spatial learning and cognitive behavior can be reliably monitored in the Barnes maze test (Roy et al., 2013; Roy et al., 2015).

FAD5× mouse model of AD [3] = assay: T-maze, context-dependent hippocampal behavior in FAD5× mice; type: in vivo; conditions: 0.2 and 0.4 mg/kg body wt/d, nebulization, 30 days
Method: FIG. 5A-5E. Nebulization of low-dose aspirin protects memory in the FAD5× mouse model of AD. Six to seven-month old FAD5× mice were treated with low doses (0.2 and 0.4 mg/kg body wt/d) of aspirin via nebulization. After 30 days of treatment, hippocampus-dependent spatial behavior was monitored by Barnes maze. 5A) Representative heat maps summarizing the overall activity of mice on the apparatus recorded with a Noldus camera and visualized by Ethovision XT software. 5B) Latency and 5C) number of errors made by all groups of mice. Context-dependent hippocampal behavior was analyzed by T-maze. 5D) Number of positive turns and 5E) number of negative turns of all groups of mice on an appetitive T-maze conditioning task were manually recorded. Results are presented as mean±SEM of 5 mice per group. ^ap<0.001 vs non-Tg; ^bp<0.001 vs FAD5×; ^cp<0.01 vs non-Tg; ^dp<0.05 vs FAD5×. T-maze apparatus monitors context-dependent hippocampal behavior, which may be a better index to test cognition in mice. […] However, similar to that observed with Barnes maze, nebulization of low doses of aspirin improved the performance of FAD5× mice on T maze as evident by increase in positive turns (FIG. 5D) and decrease in negative turns (FIG. 5E).

Aβ = assay: Western blot of Aβ in hippocampal extracts of FAD5× mice (6E10 and 82E1 antibodies); type: in vivo; conditions: 0.2 and 0.4 mg/kg body weight/d, nebulization, 30 days, immunoblot
Method: FIG. 6A-6D: Nebulization of very low-dose aspirin lowers cerebral plaque load in an animal model of AD. Six-month old FAD5× transgenic mice were treated with 0.2 mg/kg body wt/d and 0.4 mg/kg body wt/d aspirin via nebulization using the Buxco Inhalation Tower. After 30 days of treatment, Aβ levels were monitored in hippocampal extracts by Western blot analysis (A & C) and densitometric analysis (B & D) using 6E10 (A & B) and 82E1 (C & D) antibodies. Actin was used as loading control. Results are presented as mean±SEM of 4 mice per group. ^ap<0.001 vs non-Tg; ^bp<0.001 vs. FAD5×. To explore whether nebulization of very low-dose aspirin was capable of reducing the amyloid load in the hippocampus, the most affected brain region in AD, of FAD5× (Tg) mice, the following experiment was performed. […] The 82E1 is known to detect both soluble and fibrillar human Aβ to a similar degree.

[4] = system: Aβ immunoreactive plaques; assay: DAB immunostaining (6E10) of hippocampal sections, plaque load in FAD5× mice; type: in vivo; conditions: 0.2 and 0.4 mg/kg body wt/d, nebulization, 30 days, 6E10 DAB staining
Method: FIG. 7A-7B: Nebulization of very low-dose aspirin lowers cerebral plaque load in an animal model of AD. Six-month old FAD5× transgenic mice were treated with 0.2 mg/kg body wt/d and 0.4 mg/kg body wt/d aspirin via nebulization using the Buxco Inhalation Tower. After 30 days of treatment, A) diaminobenzidine (DAB) staining was performed in hippocampal sections using 6E10 antibody. B) Quantification of number of plaques in the hippocampus relative to nontransgenic. Two sections (two images per section) of each of five mice per group were used in counting. All data are represented as mean±SEM. ^ap<0.001 vs non-Tg; ^bp<0.001 vs. FAD5×. Next, in order to check the amyloid deposition in the brain, hippocampal sections were labeled with 6E10 antibody by diaminobenzidine immunostaining. Parallel to the immunoblot results, there was marked abundance of AP immunoreactive plaques in the hippocampus of Tg mice (FIG. 7A-B).

myelin = assay: Demyelination in spinal cord of EAE mice (MBP immunostaining, Luxol fast blue); type: in vivo, female SJL/J mice; conditions: 0.2 and 0.4 mg/kg body wt/d, nebulization from onset of acute phase, MBP and LFB staining
Method: FIG. 8A-8C: Nebulization of very low-dose aspirin protects myelin in experimental autoimmune encephalomyelitis (EAE), a mouse model of multiple sclerosis. EAE was induced in female SJL/J mice (4-6 week old) by adoptive transfer of MBP-primed T cells. Mice were treated with 0.2 mg/kg body wt/d and 0.4 mg/kg body wt/d aspirin via nebulization using the Buxco Inhalation Tower from the onset of acute phase. A) Spinal cord sections were immunostained with MBP (red). B) Sections were also stained with Luxol fast blue. Digital images were collected under bright field setting using a 40× objective. Demyelination was represented quantitatively (C). Data are expressed as the mean±SEM of five different mice per group. […]. EAE is an animal model of human demyelinating disease multiple sclerosis (MS). It was determined whether aspirin nebulization decreased demyelination in mice with EAE. To examine demyelination, spinal cord sections were stained with MBP, a major component of myelin. Moreover, spinal cord sections were also stained with luxol fast blue (LFB), which reacts with myelin. As evident from MBP immunostaining (FIG. 8A) and LFB staining (FIG. 8B), there were widespread demyelination zones in the white matter in mice with EAE.

FAD5× mouse model of AD [5] = conditions: oral, 2 mg/kg body wt/d; cited from earlier work
[6] = nebulization from 9 dpt, tested 16 dpt

Compound: CC(=O)Oc1ccccc1C(=O)O [aspirin, acetylsalicylic acid]
- grip test activity of EAE mice [1, 6]: significantly improved
- rotorod activity of EAE mice [1, 6]: significantly improved
- clinical manifestations of adoptively-transferred EAE ([1]; nebulization once daily from 9 dpt, monitored until 38 dpt): strongly inhibited
- CD4+Foxp3+ Tregs in lymph node cells (CD4+Foxp3+ Tregs): protected
- CD4+IL-17+ T cell population in lymph node cells (CD4+IL-17+ T cells): suppression
- Barnes maze errors (FAD5× mouse model of AD [2]): decreased
- Barnes maze latency (FAD5× mouse model of AD [2]): significantly improved
- T-maze negative turns (FAD5× mouse model of AD [3]): decrease
- T-maze positive turns (FAD5× mouse model of AD [3]): increase
- level of Aβ in the hippocampus, 6E10 antibody (Aβ): significantly reduced
- plaque load in the hippocampus [4]: decreasing the plaque load
- loss of myelin in the spinal cord (demyelination) (myelin): prevented the loss of myelin
- memory and learning (FAD5× mouse model of AD [5]): protect memory and learning
